From the METLIN SMRT retention time set (Domingo-Almenara et al. 2019) come the findings set out here.

The data set is described as follows: gradient 5% acetonitrile 3 min, to 50% in 2 min, to 85% in 15 min, held 3 min, 100 µL/min. As to conditions: column: Zorbax Extend-C18 2.1 x 50 mm; eluents: water / acetonitrile, 0.1% formic acid. Put shortly: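 The mobile phases were water and acetonitrile, each with 0.1% formic acid, pumped at 100 μL/min through a Zorbax Extend-C18 column (2.1 × 50 mm, 1.8 μm). Pure standards were injected as mixtures of ~100 molecules and detected by a quadrupole time-of-flight mass spectrometer in positive and negative ionization mode. Retention time came from computationally picked adduct peaks, each inspected by hand.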
On to `CSc1ccc(NC(=O)N2CCN(C3=CC4=NCC(C)N4C=N3)CC2)cc1` (stereo unspecified), for which the RP-LC retention time was 638 s. On to `O=C(Nc1cnc(-c2ccccc2)nc1)c1ccc(Br)o1`, for which the RP-LC retention time was 979 s. The compound `Cc1ncc2c(n1)C[C@@H]1CC[C@H]2N1S(=O)(=O)c1ccccc1C` had an RP-LC retention time of 750 s. Regarding `CCOc1ccc(NC(=O)c2cccc(N3CCNC(c4ccccc4)C3)n2)cc1` (stereo unspecified), the RP-LC retention time is 700 s. For the compound `O=c1ccc(-c2nc(-c3ccc4c(c3)OCO4)no2)cn1Cc1cc(=O)n2ccccc2n1`, the RP-LC retention time worked out at 740 s. In turn, `Cc1ccc(CNC(=O)CN2CCc3ccccc3C2C(=O)N2CCCCC2)cc1C` (stereo unspecified) gave an RP-LC retention time of 908 s.

In turn, `COc1ccc(-c2noc(CNC(=O)Nc3ccc(Cl)cc3)n2)cc1OC` returned an RP-LC retention time of 852 s. `CCNC(=O)N(CCCOC)CC(=O)N1CCc2sccc2C1COc1ccc(Cl)c(C)c1` (stereo unspecified) had an RP-LC retention time of 965 s. `CSC(=O)NC(=O)NC(=O)c1ccc([N+](=O)[O-])cc1` had an RP-LC retention time of 849 s. Consider `CC1CCCN(C(=O)c2cn(-c3cc(N4CCOCC4)ncn3)cn2)C1` (stereo unspecified), for which the RP-LC retention time was 709 s.

As to `CC1CCN(C(=O)c2ccc(OCC3CCCN(C(=O)c4ccc(C#N)cc4)C3)cc2)CC1` (stereo unspecified), the RP-LC retention time amounted to 956 s. As for `O=C(Nc1ccc2c(c1)C(=O)NC2=O)c1cccc([N+](=O)[O-])c1`, the RP-LC retention time was determined as 696 s. With `COc1ccc(NC(=O)Cn2cnc3cc4c(cc32)OCCO4)cc1Cl`, the RP-LC retention time was 658 s. `C#CCCOC(=O)Nc1ccccc1` had an RP-LC retention time of 878 s. `Cc1ccc(CNC(=O)C2CCN(c3cncnc3N3CCOCC3)CC2)cc1` showed an RP-LC retention time of 631 s. As for `Cn1nc2ccc(S(=O)(=O)N3CCOCC3)cn2c1=O`, the RP-LC retention time is 611 s. `Cc1ccc(CNS(=O)(=O)c2cc3n(c2)CCCNC3=O)o1`: the RP-LC retention time is 615 s. In the case of `O=S(=O)(Nc1ccc(-c2cn3ccccc3n2)cc1)c1ccccc1` it was 600 s; in that of `O=C(NCc1cccnc1)C1CCN(c2ncnc3c2oc2ccccc23)CC1`, 583 s; in that of `CCN(CC)C(=O)Cn1nc2nc(Nc3ccc(F)cc3)ccn2c1=O`, 669 s. As to `COc1ccc(OC)c(NC(=O)Cn2c(=O)n(-c3ccc(C)cc3)c3ncccc32)c1`, the RP-LC retention time was determined as 896 s.

Turning to `CCOC(=O)COC(=O)c1cn(-c2cccc(OC)c2)c(=O)c2ccccc12`, the RP-LC retention time was 1010 s. On to `Cc1cccn2cc(C(=O)NCc3cc(F)ccc3F)nc12`, for which the RP-LC retention time came out at 655 s. The compound `COC1CCOC2(CCN(C(=O)c3ccsc3)CC2)C1` (stereo unspecified) came in with an RP-LC retention time of 676 s.

With `CCOc1ccc(-n2ccnc(NC(=O)Nc3cccc(OC)c3)c2=O)cc1`, the RP-LC retention time stood at 980 s. For `Cc1nc(-c2ccc(C(=O)N3CCC(C)CC3)cc2)no1` the value was 840 s; for `O=C(Cn1cnc2nc3c(cc2c1=O)CCCC3)NCCCN1CCc2ccccc2C1`, 864 s; for `CCOc1ccccc1C(=O)Nc1cccn2cnnc12`, 772 s. `Cc1ccc(NC(=O)CSc2nccc(N3CCCCCC3)n2)cc1F`: the RP-LC retention time worked out at 738 s. Compound `COc1ccc(Cn2cc(C(=O)O)nn2)cc1F` had an RP-LC retention time of 641 s.

Compound `CCOC(=O)C1CCN(c2ncc(S(=O)(=O)c3ccccc3)c(N)n2)CC1` came in with an RP-LC retention time of 885 s. For `Cc1ccc(N2CCN(S(=O)(=O)c3ccc(-c4nnc(C5CC5)o4)o3)CC2)cc1` the value was 1040 s; for `O=C(NCCCN1CCc2ccccc2C1)c1sc2ncccc2c1-n1cccc1`, 679 s. On to `Cc1cc(C(=O)NCCc2c[nH]c3ccccc23)c2c(C)nn(-c3cccc(Cl)c3C)c2n1`, for which the RP-LC retention time is 1050 s.

`Cc1nc(N2CCOCC2)c2c(C(=O)Nc3cccc(Cl)c3)c(C)oc2n1` gave an RP-LC retention time of 890 s. For `CCOc1ccc(N2CC(c3nnc(NC(=O)Cc4ccc(Cl)cc4)o3)CC2=O)cc1` (stereo unspecified) the value was 796 s; for `Cc1c(Cl)cccc1NC1=NS(=O)(=O)c2ccccc21`, 813 s.

The compound `Cc1cc(C)cc(NC(=O)C2CCN(c3nccnc3Sc3cccc(C)c3)CC2)c1` showed an RP-LC retention time of 1150 s. As for `O=C(NCCn1ccc2ccccc21)C(=O)c1cn(CC(=O)N2CCOCC2)c2ccccc12`, the RP-LC retention time is 871 s. Regarding `O=C(NCc1ccccn1)c1cc(-c2cccnc2)nc2ccc(Br)cc12`, the RP-LC retention time was 898 s. Take `COc1ccc(N2CCN(c3cc(SCC(=O)NC(C)CCc4ccccc4)ncn3)CC2)cc1` (stereo unspecified): the RP-LC retention time came out at 1310 s.

Take `CCc1ccc(S(=O)(=O)Nc2cc(-c3cn4ccccc4n3)ccc2C)cc1`: the RP-LC retention time turned out to be 695 s.

Turning to `CC(C)(C)CC(=O)NCCc1noc(C2CC2)n1`, the RP-LC retention time is 713 s.

For `O=C1COc2cc(S(=O)(=O)N3CCCC3C(=O)N3CCOCC3)c(Cl)cc2N1` (stereo unspecified), the RP-LC retention time came to 628 s. In turn, `Cc1ccnc(N2CCCC(C(=O)NCC3CCN(Cc4cccc(Cl)c4)CC3)C2)n1` (stereo unspecified) came in with an RP-LC retention time of 604 s. For `CCc1ccc(NC(=O)N2CCc3nc(C)ncc3C2)cc1`, the RP-LC retention time is 695 s. `CNC(=O)N1CCCN(C2=NS(=O)(=O)C(c3ccc(F)cc3)=C2C)CC1` yielded an RP-LC retention time of 681 s.

Compound `O=C(Cc1cccs1)NCC1CCN(C(=O)Oc2ccccc2)CC1` returned an RP-LC retention time of 635 s. `COc1ccc(C(=O)CC2(O)C(=O)Nc3ccccc32)cc1` (stereo unspecified) had an RP-LC retention time of 669 s. Compound `CC(C)NC(=O)C(=O)NCc1n[nH]c(=O)c2ccccc12` had an RP-LC retention time of 621 s. For the compound `Cc1nc(-c2ccccc2)cc2nn(CC(=O)NCc3ccc(F)cc3)c(=O)n12`, the RP-LC retention time came to 559 s. In the case of `CCS(=O)(=O)N1CCC(N2C(=O)[C@H](OCCOC)[C@@H]2c2ccncc2)CC1` it was 561 s; in that of `CCN1CCN(c2cc(C)c3cc(NC(=O)CC4CCCC4)ccc3n2)CC1`, 595 s; in that of `COCc1cc(=O)n(CC(=O)NCc2ccc(F)cc2)c(N)n1`, 583 s. As for `CCN(CC)C(=O)CSc1c(C(C)C)cnc2c1c(=O)n(C)c(=O)n2C`, the RP-LC retention time stood at 898 s. In the case of `Cc1cc(N(C)C)n2nc(CN(C)Cc3ccccc3)nc2n1`, the RP-LC retention time worked out at 577 s. Regarding `COc1ccc2nc(C)cc(NCCCCCCCCCNc3cc(C)nc4ccc(OC)cc34)c2c1`, the RP-LC retention time worked out at 670 s.

On to `CCN1c2ccc(C)cc2C(=O)NC12CCN(C(=O)c1cc(C)cc(C)c1)CC2`, for which the RP-LC retention time was 912 s. For `COC(=O)c1ccc2c(=O)n(Cc3ccc(F)cc3)c(N3CCC(C(N)=O)CC3)nc2c1`, the RP-LC retention time turned out to be 777 s. In turn, `CCCNC(=O)C1CCCN(c2ccc(SCC(=O)Nc3cc(F)ccc3C)nn2)C1` (stereo unspecified) showed an RP-LC retention time of 700 s. Regarding `O=C(NCCCn1cccc1)C1COc2ccccc2O1` (stereo unspecified), the RP-LC retention time was determined as 803 s. In the case of `Cc1nn(C)c(C)c1CNC(=O)C1CCN(c2cnn(Cc3ccccc3)c(=O)c2)CC1`, the RP-LC retention time is 654 s.

Take `COc1ccc(OC)c(NC(=O)C2Cn3cccc3C(=O)N2C)c1` (stereo unspecified): the RP-LC retention time is 699 s.

In turn, `Cc1cc(C(=O)NCC2CCN(C(=O)NC(C)(C)C)CC2)no1` had an RP-LC retention time of 649 s. `COc1ccc(-c2noc(Cn3ccn4nc(-c5ccccc5)cc4c3=O)n2)cc1` returned an RP-LC retention time of 1030 s. In the case of `COc1ccc(C)cc1NC(=O)N1CCCC(Cn2c(C3CC3)nc3cccnc32)C1` (stereo unspecified), the RP-LC retention time was 722 s.

`O=C(NC(c1ccccc1)c1nnc(N2CCCCC2)o1)C1CCCC1` (stereo unspecified) registered an RP-LC retention time of 836 s. In the case of `O=C(NC1CC1)c1ccc(-c2ccc(N3CCCCC3)nc2)cc1` it was 613 s; in that of `CCOc1ccccc1NC(=O)C1CCN(C(=O)C2Sc3ccccc3NC2=O)CC1` (stereo unspecified), 814 s; in that of `COc1ccc2c(c1)C1(CCN(C(=O)C(C)(C)C)C1)C(=O)N2C` (stereo unspecified), 764 s.

On to `Cc1cc(Cl)ccc1NC(=O)N1CC(Cc2nc(-c3cnccn3)no2)C1`, for which the RP-LC retention time is 754 s. Compound `CC(C)c1ccc(-c2cc3c4nn(CC(=O)NCc5ccco5)c(=O)n4ccn3n2)cc1` showed an RP-LC retention time of 946 s.

`O=C(NC1CC1)C1CCN(c2cnn(Cc3ccccc3)c(=O)c2)C1` (stereo unspecified) registered an RP-LC retention time of 664 s.

In turn, `CCc1cc(C(=O)Nc2ccc(OC)c(OC)c2)nc2cc(-c3ccco3)nn12` yielded an RP-LC retention time of 1030 s. Compound `CCS(=O)(=O)N1C[C@@H](COC)[C@H](c2ccccn2)C1` gave an RP-LC retention time of 585 s. `Cc1ccccc1N1CCn2c1nc1c2c(=O)n(CC(=O)O)c(=O)n1C`: the RP-LC retention time came out at 664 s. As to `O=C(NCc1ccc(F)c(Cl)c1)c1csc(C(=O)NC2CC2)n1`, the RP-LC retention time was 828 s.

As for `CCOc1ccc(C(=O)N2CCCC2c2nc(-c3ccc(OC)cc3)no2)cc1` (stereo unspecified), the RP-LC retention time worked out at 886 s. In the case of `Cn1nc(C(=O)N2CCOCC2)c2c1CCN(C(=O)Nc1ccc(Br)cc1F)C2` it was 713 s; in that of `COc1cccc(CN2CCC3(CC2)c2[nH]c4ccccc4c2CCN3C)c1`, 596 s; in that of `COC(=O)Cn1c(C)cc(=O)n2nc(-c3ccccc3C)nc12`, 761 s.
